Measured values from PMC11157767 (Molecular Cancer, 2024).

Test system: TRIM24-MET-i cells
Method: The number of unique and shared differentially expressed genes between each comparison are shown in parentheses. A linear regression line is depicted along with Pearson’s correlation coefficient (r) and its associated p-value. […] Common negatively enriched genesets between all three comparisons are in bold. c, Heatmaps showing expression of Hallmark_Myc_Target_v1/2 genes for indicated cells and treatment comparisons (TRIM-MET cells were treated in vitro, TFG-MET cells in vivo). Select leading edge genes from GSEA are labeled.

Structure (SMILES): CNC(=O)c1ccc(-c2cnc3ncc(Cc4ccc5ncccc5c4)n3n2)cc1F [Capmatinib]
- NES HALLMARK_ADIPOGENESIS (GSEA v. DMSO): -0.9589
- NES HALLMARK_ALLOGRAFT_REJECTION (GSEA v. DMSO): -1.401
- NES HALLMARK_ANDROGEN_RESPONSE (GSEA v. DMSO): -1.889
- NES HALLMARK_APICAL_JUNCTION (GSEA v. DMSO): -1.091
- NES HALLMARK_APICAL_SURFACE (GSEA v. DMSO): 1.792
- NES HALLMARK_APOPTOSIS (GSEA v. DMSO): -1.59
- NES HALLMARK_BILE_ACID_METABOLISM (GSEA v. DMSO): 1.602
- NES HALLMARK_CHOLESTEROL_HOMEOSTASIS (GSEA v. DMSO): -1.359
- NES HALLMARK_COAGULATION (GSEA v. DMSO): -1.635
- NES HALLMARK_COMPLEMENT (GSEA v. DMSO): -1.904
- NES HALLMARK_DNA_REPAIR (GSEA v. DMSO): -0.965
- NES HALLMARK_E2F_TARGETS (GSEA v. DMSO): -1.195
- NES HALLMARK_EPITHELIAL_MESENCHYMAL_TRANSITION (GSEA v. DMSO): -1.076
- NES HALLMARK_ESTROGEN_RESPONSE_EARLY (GSEA v. DMSO): -1.483
- NES HALLMARK_ESTROGEN_RESPONSE_LATE (GSEA v. DMSO): -1.018
- NES HALLMARK_FATTY_ACID_METABOLISM (GSEA v. DMSO): 0.99
- NES HALLMARK_G2M_CHECKPOINT (GSEA v. DMSO): -1.318
- NES HALLMARK_GLYCOLYSIS (GSEA v. DMSO): -1.3547
- NES HALLMARK_HEDGEHOG_SIGNALING (GSEA v. DMSO): -1.3433
- NES HALLMARK_HEME_METABOLISM (GSEA v. DMSO): 1.243
- NES HALLMARK_HYPOXIA (GSEA v. DMSO): -1.387
- NES HALLMARK_IL2_STAT5_SIGNALING (GSEA v. DMSO): -2.015
- NES HALLMARK_IL6_JAK_STAT3_SIGNALING (GSEA v. DMSO): -0.9282
- NES HALLMARK_INFLAMMATORY_RESPONSE (GSEA v. DMSO): -1.659
- NES HALLMARK_INTERFERON_ALPHA_RESPONSE (GSEA v. DMSO): 1.273
- NES HALLMARK_INTERFERON_GAMMA_RESPONSE (GSEA v. DMSO): -0.9862
- NES HALLMARK_KRAS_SIGNALING_DN (GSEA v. DMSO): 1.126
- NES HALLMARK_KRAS_SIGNALING_UP (GSEA v. DMSO): -1.881
- NES HALLMARK_MITOTIC_SPINDLE (GSEA v. DMSO): -1.303
- NES HALLMARK_MTORC1_SIGNALING (GSEA v. DMSO): -2.1602
- NES HALLMARK_MYC_TARGETS_V1 (GSEA v. DMSO): -2.499
- NES HALLMARK_MYC_TARGETS_V2 (GSEA v. DMSO): -2.697
- NES HALLMARK_MYOGENESIS (GSEA v. DMSO): -0.8301
- NES HALLMARK_NOTCH_SIGNALING (GSEA v. DMSO): -1.186
- NES HALLMARK_OXIDATIVE_PHOSPHORYLATION (GSEA v. DMSO): -1.201
- NES HALLMARK_P53_PATHWAY (GSEA v. DMSO): -0.9833
- NES HALLMARK_PANCREAS_BETA_CELLS (GSEA v. DMSO): 1.071
- NES HALLMARK_PEROXISOME (GSEA v. DMSO): 1.028
- NES HALLMARK_PI3K_AKT_MTOR_SIGNALING (GSEA v. DMSO): -1.164
- NES HALLMARK_PROTEIN_SECRETION (GSEA v. DMSO): -1.171
- NES HALLMARK_REACTIVE_OXYGEN_SPECIES_PATHWAY (GSEA v. DMSO): -1.072
- NES HALLMARK_SPERMATOGENESIS (GSEA v. DMSO): 0.7417
- NES HALLMARK_TGF_BETA_SIGNALING (GSEA v. DMSO): -1.868
- NES HALLMARK_TNFA_SIGNALING_VIA_NFKB (GSEA v. DMSO): -2.324
- NES HALLMARK_UV_RESPONSE_DN (GSEA v. DMSO): -1.271
- NES HALLMARK_UV_RESPONSE_UP (GSEA v. DMSO): -1.537
- NES HALLMARK_WNT_BETA_CATENIN_SIGNALING (GSEA v. DMSO): -1.2104
- NES HALLMARK_XENOBIOTIC_METABOLISM (GSEA v. DMSO): 0.8191
- NES KRIGE_RESPONSE_TO_TOSEDOSTAT_6HR_DN (GSEA v. DMSO): -2.5861
- NES KRIGE_RESPONSE_TO_TOSEDOSTAT_24HR_DN (GSEA v. DMSO): -2.743
- NES LEE_BMP2_TARGETS_DN (GSEA v. DMSO): -2.881
- NES PUJANA_CHEK2_PCC_NETWORK (GSEA v. DMSO): -2.452
- NES WEI_MYCN_TARGETS_WITH_E_BOX (GSEA v. DMSO): -2.939
- ES GOBP_NCRNA_METABOLIC_PROCESS (GSEA, v. DMSO): -0.717
- ES GOBP_NCRNA_PROCESSING (GSEA, v. DMSO): -0.737
- ES GOBP_RIBONUCLEOPROTEIN_COMPLEX_BIOGENESIS (GSEA, v. DMSO): -0.7048
- ES GOBP_RIBOSOME_BIOGENESIS (GSEA, v. DMSO): -0.7793
- ES GOBP_RRNA_METABOLIC_PROCESS (GSEA, v. DMSO): -0.7679
- ES GOCC_MITOCHONDRIAL_ENVELOPE (GSEA, v. DMSO): -0.4986
- ES GOCC_NUCLEOLUS (GSEA, v. DMSO): -0.546
- ES GOCC_ORGANELLE_INNER_MEMBRANE (GSEA, v. DMSO): -0.5385
- ES GOCC_PRERIBOSOME (GSEA, v. DMSO): -0.8527
- ES GOCC_RIBONUCLEOPROTEIN_COMPLEX (GSEA, v. DMSO): -0.5996
- ES GOMF_CATALYTIC_ACTIVITY_ACTING_ON_A_TRNA (GSEA, v. DMSO): -0.6843
- ES GOMF_CATALYTIC_ACTIVITY_ACTING_ON_RNA (GSEA, v. DMSO): -0.6193
- ES GOMF_RNA_HELICASE_ACTIVITY (GSEA, v. DMSO): -0.6953
- ES GOMF_RRNA_BINDING (GSEA, v. DMSO): -0.7411
- ES GOMF_STRUCTURAL_CONSTITUENT_OF_RIBOSOME (GSEA, v. DMSO): -0.6124
- NES GOBP_NCRNA_METABOLIC_PROCESS (GSEA, v. DMSO): -2.6866
- NES GOBP_NCRNA_PROCESSING (GSEA, v. DMSO): -2.741
- NES GOBP_RIBONUCLEOPROTEIN_COMPLEX_BIOGENESIS (GSEA, v. DMSO): -2.64
- NES GOBP_RIBOSOME_BIOGENESIS (GSEA, v. DMSO): -2.85
- NES GOBP_RRNA_METABOLIC_PROCESS (GSEA, v. DMSO): -2.741
- NES GOCC_MITOCHONDRIAL_ENVELOPE (GSEA, v. DMSO): -1.908
- NES GOCC_NUCLEOLUS (GSEA, v. DMSO): -2.1002
- NES GOCC_ORGANELLE_INNER_MEMBRANE (GSEA, v. DMSO): -2.039
- NES GOCC_PRERIBOSOME (GSEA, v. DMSO): -2.662
- NES GOCC_RIBONUCLEOPROTEIN_COMPLEX (GSEA, v. DMSO): -2.294
- NES GOMF_CATALYTIC_ACTIVITY_ACTING_ON_A_TRNA (GSEA, v. DMSO): -2.236
- NES GOMF_CATALYTIC_ACTIVITY_ACTING_ON_RNA (GSEA, v. DMSO): -2.299
- NES GOMF_RNA_HELICASE_ACTIVITY (GSEA, v. DMSO): -2.194
- NES GOMF_RRNA_BINDING (GSEA, v. DMSO): -2.258
- NES GOMF_STRUCTURAL_CONSTITUENT_OF_RIBOSOME (GSEA, v. DMSO): -2.138
